Results published in US11161856B2 (H. Lundbeck A/S, priority 2017, dated 2021).

What was measured:
MGLL = target: T1, MGLL (Mus musculus, UniProt O35678); test: In vitro competitive activity-based protein profiling, mouse brain proteome (MGLL); assay type: biochemical; conditions: concentration not given (μM)
T1 construct: Brain; from tissue; host or cells: mouse brain proteome
T1 sequence (O35678 1-303): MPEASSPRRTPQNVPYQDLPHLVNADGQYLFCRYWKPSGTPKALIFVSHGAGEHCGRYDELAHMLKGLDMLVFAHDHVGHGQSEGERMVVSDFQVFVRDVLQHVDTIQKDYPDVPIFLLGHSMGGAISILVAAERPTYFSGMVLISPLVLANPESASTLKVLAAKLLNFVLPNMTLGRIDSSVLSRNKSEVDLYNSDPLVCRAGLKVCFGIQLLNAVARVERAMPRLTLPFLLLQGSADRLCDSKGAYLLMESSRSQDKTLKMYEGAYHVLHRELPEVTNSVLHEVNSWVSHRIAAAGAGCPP

ABHD6 = target: T2, ABHD6 (Mus musculus, UniProt Q8R2Y0); test: In vitro competitive activity-based protein profiling, mouse brain proteome (ABHD6); assay type: biochemical; conditions: mouse brain proteome; concentration not given (μM)
T2 construct: Brain; from tissue; host or cells: mouse brain proteome
T2 sequence (Q8R2Y0 1-336): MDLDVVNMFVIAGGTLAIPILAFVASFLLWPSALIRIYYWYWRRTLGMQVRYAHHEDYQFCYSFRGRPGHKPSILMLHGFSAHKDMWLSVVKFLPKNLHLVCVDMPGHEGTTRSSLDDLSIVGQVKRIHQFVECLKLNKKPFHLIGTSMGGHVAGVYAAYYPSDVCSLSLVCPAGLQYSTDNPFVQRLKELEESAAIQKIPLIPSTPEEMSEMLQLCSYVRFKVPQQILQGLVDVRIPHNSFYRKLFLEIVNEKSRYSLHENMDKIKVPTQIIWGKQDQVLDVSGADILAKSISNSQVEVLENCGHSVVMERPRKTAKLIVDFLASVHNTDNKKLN
Experimental: [The source words this procedure for another target and reports this target under the same test.] In Vitro Competitive Activity-Based Protein Profiling.
Proteomes (human prefrontal cortex or cell membrane fractions) (50 μL, 1.0 mg/mL total protein concentration) were preincubated with varying concentrations of inhibitors at 37° C. After 30 min, FP-Rh or HT-01 (1.0 μL, 50 μM in DMSO) was added and the mixture was incubated for another 30 min at room temperature. Reactions were quenched with SDS loading buffer (15 μL-4×) and run on SDS-PAGE.

Structure (SMILES)	% Inh MGLL Brain (Mouse, μM) (MGLL)	% Inh ABHD6 Brain (Mouse, μM) (ABHD6)
O=C(OC(C(F)(F)F)C(F)(F)F)N1CC2(CCN(Cc3ccc(CN4CCOCC4)cc3)CC2)C1 [Example 18, 1,1,1,3,3,3-Hexafluoropropan-2-yl 7-(4-(morpholinomethyl)benzyl)-2,7-diazaspiro[3.5]nonane-2-carboxylate]	## (## is between 25 and 75%)	### (### is ≥75%)
O=C(OC(C(F)(F)F)C(F)(F)F)N1CCC2(CCN(Cc3ccc(C(F)(F)F)cc3N3CCCCC3)CC2)C1 [Example 187, 1,1,1,3,3,3-Hexafluoropropan-2-yl 8-(2-(piperidin-1-yl)-4-(trifluoromethyl)benzyl)-2,8-diazaspiro[4.5]decane-2-carboxylate]	### (### is ≥75%)	# (# is ≤25%)
CC(=O)N1CCCc2cccc(CN3CCC4(CC3)CCN(C(=O)OC(C(F)(F)F)C(F)(F)F)C4)c21 [Example 193, 1,1,1,3,3,3-Hexafluoropropan-2-yl 8-((1-acetyl-1,2,3,4-tetrahydroquinolin-8-yl)methyl)-2,8-diazaspiro[4.5]decane-2-carboxylate]	## (## is between 25 and 75%)	# (# is ≤25%)
O=C(OC(C(F)(F)F)C(F)(F)F)N1CCC2(CC1)CN(Cc1ccc(Cl)cc1N1CCCC1)C2 [Example 34]	### (### is ≥75%)	### (### is ≥75%)
O=C(OC(C(F)(F)F)C(F)(F)F)N1CC2(CCN(Cc3cccc(N4CCCC4)c3)CC2)C1 [Example 77, 1,1,1,3,3,3-Hexafluoropropan-2-yl 7-(3-(pyrrolidin-1-yl)benzyl)-2,7-diazaspiro[3.5]nonane-2-carboxylate]	## (## is between 25 and 75%)	### (### is ≥75%)
CN1CCC2(CCN(c3cc(C(F)(F)F)ccc3CN3CCN(C(=O)OC(C(F)(F)F)C(F)(F)F)CC3)CC2)C1 [Example 182, 1,1,1,3,3,3-Hexafluoropropan-2-yl 4-(2-(2-methyl-2,8-diazaspiro[4.5]decan-8-yl)-4-(trifluoromethyl)benzyl) piperazine-1-carboxylate]	### (### is ≥75%)	# (# is ≤25%)
CC(=O)N1CCC2(CCN(c3cc(Cl)cc(CN4CCCC45CN(C(=O)OC(C(F)(F)F)C(F)(F)F)C5)c3)CC2)C1 [Example 234, 1,1,1,3,3,3-Hexafluoropropan-2-yl 5-(3-(2-acetyl-2,8-diazaspiro[4.5]decan-8-yl)-5-chlorobenzyl)-2,5-diazaspiro[3.4]octane-2-carboxylate]	# (# is ≤25%)	### (### is ≥75%)
O=C(OC(C(F)(F)F)C(F)(F)F)N1CCC2(CC1)CN(Cc1cccc(Oc3ccccc3)c1)C2 [Example 78, 1,1,1,3,3,3-Hexafluoropropan-2-yl 2-(3-phenoxybenzyl)-2,7-diazaspiro[3.5]nonane-7-carboxylate]	### (### is ≥75%)	### (### is ≥75%)
CS(=O)(=O)N1CC2(CCN(c3ccccc3CN3CCN(C(=O)OC(C(F)(F)F)C(F)(F)F)CC3)C2)C1 [Example 167, 1,1,1,3,3,3-Hexafluoropropan-2-yl 4-(2-(2-(methylsulfonyl)-2,6-diazaspiro[3,4]octan-6-yl)benzyl)piperazine-1-carboxylate]	### (### is ≥75%)	# (# is ≤25%)
Cc1ccc(CN2CC3(CCN(C(=O)OC(C(F)(F)F)C(F)(F)F)CC3)C2)cc1 [Example 84, 1,1,1,3,3,3-Hexafluoropropan-2-yl 2-(4-methylbenzyl)-2,7-diazaspiro[3.5]nonane-7-carboxylate]	### (### is ≥75%)	### (### is ≥75%)
CS(=O)(=O)N1CCC2(CCN(c3cc(C(F)(F)F)ccc3CN3CCN(C(=O)OC(C(F)(F)F)C(F)(F)F)CC3)CC2)C1 [Example 185, 1,1,1,3,3,3-Hexafluoropropan-2-yl 4-(2-(2-(methylsulfonyl)-2,8-diazaspiro[4.5]decan-8-yl)-4-(trifluoromethyl)benzyl) piperazine-1-carboxylate]	### (### is ≥75%)	# (# is ≤25%)
O=C(OC(C(F)(F)F)C(F)(F)F)N1CCC2(CCN(Cc3ccc(Cl)cc3N3CCOCC3)CC2)C1 [Example 181, 1,1,1,3,3,3-Hexafluoropropan-2-yl 8-(4-chloro-2-morpholinobenzyl)-2,8-diazaspiro[4.5]decane-2-carboxylate]	### (### is ≥75%)	# (# is ≤25%)
CC(=O)N1CC2(CCN(c3ccccc3CN3CCCCC34CN(C(=O)OC(C(F)(F)F)C(F)(F)F)C4)C2)C1 [Example 231, 1,1,1,3,3,3-Hexafluoropropan-2-yl 5-(2-(2-acetyl-2,6-diazaspiro[3.4]octan-6-yl)benzyl)-2,5-diazaspiro[3.5]nonane-2-carboxylate]	## (## is between 25 and 75%)	## (## is between 25 and 75%)
O=C(OC(C(F)(F)F)C(F)(F)F)N1CCC2(CC1)CN(Cc1cccc(N3CCOCC3)c1)C2 [Example 90, 1,1,1,3,3,3-Hexafluoropropan-2-yl 2-(3-morpholinobenzyl)-2,7-diazaspiro[3,5]nonane-7-carboxylate]	### (### is ≥75%)	### (### is ≥75%)
CS(=O)(=O)N1CC2(CCN(c3cc(Cl)ccc3CN3CCN(C(=O)OC(C(F)(F)F)C(F)(F)F)CC3)C2)C1 [Example 175, 1,1,1,3,3,3-Hexafluoropropan-2-yl 4-(4-chloro-2-(2-(methylsulfonyl)-2,6-diazaspiro[3.4]octan-6-yl)benzyl)piperazine-1-carboxylate]	### (### is ≥75%)	# (# is ≤25%)
CC(=O)N1CCC2(CCN(c3cc(Cl)ccc3CN3CCN(C(=O)OC(C(F)(F)F)C(F)(F)F)CC3)CC2)C1 [Example 178, 1,1,1,3,3,3-Hexafluoropropan-2-yl 4-(2-(2-acetyl-2,8-diazaspiro[4.5]decan-8-yl)-4-chlorobenzyl)piperazine-1-carboxylate]	### (### is ≥75%)	# (# is ≤25%)
CC(=O)N1CC2CN(c3cc(Cl)ccc3CN3CCN(C(=O)OC(C(F)(F)F)C(F)(F)F)CC3)CC2C1 (centres unmarked) [Example 202, 1,1,1,3,3,3-Hexafluoropropan-2-yl 4-(2-(5-acetylhexahydropyrrolo[3,4-c]pyrrol-2(lH)-yl)-4-chlorobenzyl)piperazine-1 - carboxylate]	### (### is ≥75%)	## (## is between 25 and 75%)
O=C(OC(C(F)(F)F)C(F)(F)F)N1CCC2(CC1)CN(Cc1ccccc1F)C2 [Example 98, 1,1,1,3,3,3-Hexafluoropropan-2-yl 2-(2-fluorobenzyl)-2,7-diazaspiro[3.5]nonane-7-carboxylate]	### (### is ≥75%)	### (### is ≥75%)
O=C(OC(C(F)(F)F)C(F)(F)F)N1CC2(CCN(Cc3ccc(Cl)cc3)CC2)C1 [Example 75, 1,1,1,3,3,3-Hexafluoropropan-2-yl 7-(4-chlorobenzyl)-2,7-diazaspiro[3.5]nonane-2-carboxylate]	### (### is ≥75%)	### (### is ≥75%)
CS(=O)(=O)N1CC2(CCN(c3cc(C(F)(F)F)ccc3CN3CCN(C(=O)OC(C(F)(F)F)C(F)(F)F)CC3)C2)C1 [Example 186, 1,1,1,3,3,3-Hexafluoropropan-2-yl 4-(2-(2-(methylsulfonyl)-2,6-diazaspiro[3,4]octan-6-yl)-4-(trifluoromethyl)benzyl) piperazine-1-carboxylate]	### (### is ≥75%)	# (# is ≤25%)
O=C(OC(C(F)(F)F)C(F)(F)F)N1CC2(CCN(Cc3ccc(Cl)c(Cl)c3)CC2)C1 [Example 55, 1,1,1,3,3,3-Hexafluoropropan-2-yl 7-(3,4-dichlorobenzyl)-2,7-diazaspiro[3,5]nonane-2-carboxylate]	## (## is between 25 and 75%)	### (### is ≥75%)
O=C(OC(C(F)(F)F)C(F)(F)F)N1CCC2(CC1)CN(Cc1ccc(Cl)cc1N1CCCCC1)C2 [Example 38, 1,1,1,3,33-Hexafluoropropan-2-yl 2-(4-chloro-2-(piperidin-1-yl)benzyl)-2,7-diazaspiro[3.5]nonane-7-carboxylate]	### (### is ≥75%)	## (## is between 25 and 75%)
